Converted amounts (≈) assume the structure as drawn. Where two headings read alike, the source gives them in different places.
Key:
[1] = test system: Staphylococcus aureus VRS-2 (VanA, VRSA); assay: microbe, parasite or virus in culture; conditions: for MIC: Staphylococcus aureus, VRSA
Protocol: (§1) The S. aureus strains ATCC 29213, ATCC 19636, ATCC 33591 (MRSA), BAA-1556 (MRSA USA 300) were obtained from the American Type Culture Collection (ATCC). […] The species identity was confirmed with 16S rRNA analysis.
(§2) Two broth mediums were used, Mueller Hinton Broth and RPMI 1640+5% fetal bovine serum. Test substances were evaluated in 11-point titrations and performed in duplicate.
(§3) The direct colony suspension method was used to prepare inoculated broth. Isolated colonies were taken from an 18-24 h culture plate. Optical density measurements (OD620nm) were used to estimate the bacterial density. […] The stock solutions were diluted by 2-fold serial titrations with their respective vehicles for a total of 11 concentrations.
(§4) A 4 μL aliquot of each dilution was added to 196 μL of broth medium seeded with the organism in wells of a sterilized 96 well polypropylene plate (Nunc™ 249949) using aluminum foil as cover. The final bacterial count was 2 to 8×10^5 CFU/mL. […] The final test article concentration range was 32 to 0.0313 μg/mL.
(§5) Each test substance dilution was evaluated in duplicate on one test occasion. […] Plates were incubated at 35-37° C. for 18 h. The test plates were visually examined and each well was visually scored for growth or complete inhibition of growth. The MIC value was recorded.

EMRSA-15 lung infection = test system: EMRSA-15 lung infection
Protocol: Murine EMRSA-15 lung infection model. In one embodiment this was carried out using the method described previously,^58 an overnight culture of EMRSA-15 was prepared in tryptic soy broth (TSB). EMRSA-15 was cultured in TSB overnight at 37° C., adjusted to a starting OD600 of 0.025, and grown for additional 4 h for agar beads preparation. EMRSA-15 was embedded into agar beads by mixing the overnight culture with molten tryptic soy agar, which was then spun into warmed mineral oil. The preparation was cooled and centrifuged at 2,700 g, the remaining oil was eliminated and the beads were washed in sterile PBS. The colony forming unit (cfu) content of the beads slurry was subsequently quantified on TSA plates and the beads slurry then diluted to either 2×10^7 cfu/ml in sterile PBS to deliver a final dose of either 1×10^6 cfu/mouse. Animal work was performed in accordance with the Animals (Scientific Procedures) Act of 1986 (United Kingdom). On day 0, male C57B16J mice (8-10 weeks, Charles River) were anesthetized under Isoflurane and 50 μl inoculum of EMRSA-15 embedded in agar beads (10^6 cfu/mouse) was instilled directly into the respiratory tract via oropharyngeal dosing (o.a) to reduce severity associated with surgery. Sham control mice were inoculated with sterile PBS agar beads. […] Body weight was measured daily, and animals monitored at regular intervals for signs of pain and distress. 48 hours post pulmonary infection, animals were terminally euthanized using 25% Urethane via intra-peritoneal injection. Lungs, were removed and homogenized in 2 ml PBS. Samples were serially diluted 1:10 in PBS and plated for CFU count. Lung homogenates were then centrifuged at 14000 rpm for 30 min at 4° C. and the supernatants were stored at −80° C. for future analysis. For bronchoalveolar lavage fluid collection and analysis (total and differential cell count), a 22-gauge catheter was inserted into the trachea and BAL was recovered by instillation of 0.5 ml of sterile PBS three times and total cells counts were performed by adding Turks stain in a 1:1 ratio. Total cells were then enumerated on an improved Naubauer haemocytometer. BAL fluid was then centrifuged, and supernatants were stored at −20° C. Cytospin slides were prepared and 100 μl of BAL was added into a cytospin funnel and centrifuged at 1000 rpm for 1 minute on a medium acceleration. The slides were then stained using Diff-Quick (Dade, Biomap, Italy).
More suitably Murine EMRSA-15 lung infection model was carried out using the method described previously,^58 an overnight culture of EMRSA-15 was prepared in tryptic soy broth (TSB). EMRSA-15 was cultured in TSB overnight at 37° C., adjusted to a starting OD600 of 0.025, and grown for additional 4 h for agar beads preparation. EMRSA-15 was embedded into agar beads by mixing the overnight culture with molten tryptic soy agar, which was then spun into warmed mineral oil. The preparation was cooled and centrifuged at 2,700 g, the remaining oil was eliminated, and the beads were washed in sterile PBS. The colony forming unit (CFU) content of the beads slurry was subsequently quantified on TSA plates and the beads slurry then diluted to either 2×10^7 CFU/ml in sterile PBS to deliver a final dose of either 1×10^6 CFU/mouse. Animal work was performed in accordance with the Animals (Scientific Procedures) Act of 1986 (United Kingdom). On day 0, male C57B16J mice (8-10 weeks, Charles River) were anesthetized under Isoflurane and 50 μl inoculum of EMRSA-15 embedded in agar beads (10^6 CFU/mouse) was instilled directly into the respiratory tract via oropharyngeal dosing (o.a.) to reduce severity associated with surgery. Sham control mice were inoculated with sterile PBS agar beads.

[2] = test system: Staphylococcus aureus ATCC 19636 (Smith); assay: microbe, parasite or virus in culture; conditions: for MIC: Staphylococcus aureus
Protocol: as §1, §2, §3, §4, §5

[3] = test system: Staphylococcus aureus ATCC 33591 (MRSA); assay: microbe, parasite or virus in culture; conditions: for MIC: Staphylococcus aureus
Protocol: as §1, §2, §3, §4, §5

[4] = test system: Staphylococcus aureus ATCC BAA-1556 (USA300, MRSA); assay: microbe, parasite or virus in culture; conditions: for MIC: Staphylococcus aureus
Protocol: as §1, §2, §3, §4, §5

[5] = test system: Staphylococcus aureus ATCC 29213; assay: microbe, parasite or virus in culture; conditions: for MIC: Staphylococcus aureus
Protocol: as §1, §2, §3, §4, §5

[6] = test system: P. aeruginosa RP73 lung infection; assay: Murine P. aeruginosa RP73 lung infection model; type: in vivo, mouse
[7] = test system: VS Enterococcus faecalis NCTC 775; assay: Antibacterial activity assay (broth microdilution MIC); type: cell-based; conditions: VSE775; medium and unit not given; in µg/mL
[8] = test system: MS Staphylococcus aureus ATCC 9144; type: cell-based; conditions: MSSA9144; medium and unit inferred
VRE12201 = assay: Antibacterial activity assay (broth microdilution MIC); type: cell-based, Enterococcus faecalis; conditions: medium and unit inferred
Text: Antibacterial activity assay.
The bacterial strains used are as in the above examples. A table of strains is provided below to aid understanding.

[9] = test system: Acinetobacter baumannii AYE; type: cell-based; conditions: AYE; medium and unit not given; in µg/mL
[10] = test system: EMR Staphylococcus aureus-15 (EMRSA-15); type: cell-based; conditions: EMRSA15; medium and unit inferred
C. albicans = assay: MIC on initial panels, fungi; type: cell-based; conditions: unit inferred
[11] = test system: EMR Staphylococcus aureus-16 (EMRSA-16); type: cell-based; conditions: EMRSA16; medium and unit not given; in µg/mL
[12] = test system: Klebsiella pneumoniae NCTC 13368; type: cell-based; conditions: KP13368; medium and unit not given; in µg/mL
[13] = test system: Pseudomonas aeruginosa PA01; assay: Antibacterial activity assay (broth microdilution MIC); type: cell-based; conditions: medium and unit not given, in µg/mL
HEK293 = assay: Cytotoxicity assay (XTT); type: cell-based, human; conditions: unit not given
Protocol: (§6) Cytotoxicity assay. HeLa and HEK293 cell lines were purchased from ECACC and cultured in Eagle's Minimum Essential Media (EMEM) containing glutamine, supplemented with 10% FBS and 1× non-essential amino acids (NEAA) at 37° C., 10% CO2. Cytotoxicity was measured by incubating starter cultures of cells for 24 hours in a 96 well plate, gently removing the supernatant and replacing it with dilutions of peptides and controls, incubating for a further 24 hours and then staining of the cells with the second generation tetrazolium dye, XTT. […]

[14] = test system: Escherichia coli NCTC 12923; type: cell-based; conditions: EC12923; medium and unit not given; in µg/mL
[15] = test system: Pseudomonas aeruginosa NCTC 13437; assay: Antibacterial activity assay (broth microdilution MIC); type: cell-based; conditions: PA13437; medium and unit not given; in µg/mL
[16] = test system: Acinetobacter baumannii ATCC 17978; type: cell-based; conditions: AB17978; medium and unit not given; in µg/mL
HeLa = assay: Cytotoxicity assay (XTT); type: cell-based, human; parameters: Toxicity HeLa: unit not given beside the values; conditions: unit not given
Protocol: as §6

Klebsiella pneumoniae M6 = type: cell-based; conditions: medium and unit not given, in µg/mL

Q: How did the MIC ([1]; 18 h, read-out: MIC, antibiotic susceptibility, VRS-2, CLSI M7-A10, unit inferred) turn out when `CN[C@H](CC(C)C)C(=O)N[C@H]1C(=O)N[C@@H](CC(N)=O)C(=O)N[C@H]2C(=O)N[C@H]3C(=O)N[C@H](C(=O)N[C@H](C(=O)O)c4cc(O)cc(O)c4-c4cc3ccc4O)[C@H](O)c3ccc(c(Cl)c3)Oc3cc2cc(c3O[C@@H]2O[C@H](CO)[C@@H](O)[C@H](O)[C@H]2O[C@H]2C[C@](C)(N)[C@H](O)[C@H](C)O2)Oc2ccc(cc2Cl)[C@H]1O` [Vancomycin] was run?
A: > 64 µg/mL

Q: And the MIC ([1]; VRS-2, MHB)?
A: 4 µg/mL (≈ 2.76 µM)

Q: And the MIC ([1]; VRS-2, RPMI + 5% FBS)?
A: > 32 µg/mL

Q: What about the “susceptibility category (CLSI M100 interpretive criteria)” value (“susceptibility category” for short) ([1]; VRS-2) of the same molecule?
A: R

Q: What about the “IL-6 and neutrophil recruitment in BAL” value (EMRSA-15 lung infection; following therapy, i.v.) of the same molecule?
A: reduced

Q: What about the “macrophage numbers, TNFα and MCP-1 levels in BAL” value (EMRSA-15 lung infection; following therapy, i.v.) of the same molecule?
A: No effects

Q: And the “effective cumulative dose over 48 hrs” value (EMRSA-15 lung infection; murine EMRSA-15 lung infection)?
A: 200 mg/kg

Q: What about the “mouse KC levels in BAL” value (EMRSA-15 lung infection; vancomycin 600 mg/kg or the two higher D-pleurocidin-KR doses (15, 1.5 mg/kg cumulative)) of the same molecule?
A: KC levels to fall to that of the uninfected group

Q: What about the “susceptibility category” value ([2]; ATCC 19636 (Smith)) of the same molecule?
A: S

Q: What about the MIC ([2]; ATCC19636, 18 h, read-out: MIC, antibiotic susceptibility, ATCC 19636 (Smith), CLSI M7-A10, unit inferred) of the same molecule?
A: 1 µg/mL (≈ 0.69 µM)

Q: What about the MIC ([2]; ATCC19636, ATCC 19636 (Smith), MHB) of the same molecule?
A: 0.5 µg/mL (≈ 0.345 µM)

Q: And the MIC ([2]; ATCC19636, ATCC 19636 (Smith), RPMI + 5% FBS)?
A: 2 µg/mL

Q: And the “susceptibility category” value ([3]; ATCC 33591)?
A: S

Q: And the MIC ([3]; ATCC 33591, MHB)?
A: 1 µg/mL (≈ 0.69 µM)

Q: And the MIC ([3]; ATCC 33591, RPMI + 5% FBS)?
A: 4 µg/mL

Q: And the MIC ([3]; ATCC33591|MRSA, 18 h, read-out: MIC, antibiotic susceptibility, ATCC 33591, CLSI M7-A10, unit inferred)?
A: 1 µg/mL (≈ 0.69 µM)

Q: What about the “susceptibility category” value ([4]; BAA-1556) of the same molecule?
A: S

Q: What about the MIC ([4]; ATCC BAA-1556, MHB) of the same molecule?
A: 0.5 µg/mL (≈ 0.345 µM)

Q: What about the MIC ([4]; ATCC BAA-1556, RPMI + 5% FBS) of the same molecule?
A: 2 µg/mL

Q: And the MIC ([4]; ATCCBAA1556|BAA1556|MRSA|USA300, 18 h, read-out: MIC, antibiotic susceptibility, BAA-1556, CLSI M7-A10, unit inferred)?
A: 0.5 to 1 µg/mL (≈ 0.345 to 0.69 µM)

Q: What about the “susceptibility category” value ([5]; ATCC 29213) of the same molecule?
A: S

Q: What about the MIC ([5]; ATCC29213, 18 h, read-out: MIC, antibiotic susceptibility, ATCC 29213, CLSI M7-A10, unit inferred) of the same molecule?
A: 0.5 to 1 µg/mL (≈ 0.345 to 0.69 µM)

Q: What about the MIC ([5]; ATCC29213, ATCC 29213, MHB) of the same molecule?
A: 0.5 µg/mL (≈ 0.345 µM)

Q: What about the MIC ([5]; ATCC29213, ATCC 29213, RPMI + 5% FBS) of the same molecule?
A: 2 µg/mL

Q: How did the “reduction in lung CFU” value ([6]; 25 mg/kg tobramycin (p=0.0919)) turn out when `NC[C@H]1O[C@H](O[C@H]2[C@H](O)[C@@H](O[C@H]3O[C@H](CO)[C@@H](O)[C@H](N)[C@H]3O)[C@H](N)C[C@@H]2N)[C@H](N)C[C@@H]1O` [tobramycin] was run?
A: 0.8 log10

Q: And the “reduction in lung CFU” value ([6]; cumulative dose of 200 mg/kg tobramycin over 30 hours)?
A: 1.4 log10

Q: With “GWGSFFRRAAHAGRHAGRAALTHYL-NH2 [D-pleuro-VAKR, 6x substituted (4 K->R plus 2 V->A), D-amino acids]” as the molecule, how does the “MIC on initial panels” value [7] read?
A: 32-64

Q: And the MIC on initial panels [8]?
A: 8 µg/mL

Q: What about the MIC on initial panels (VRE12201) of the same molecule?
A: 128 µg/mL

Q: What about the “MIC on initial panels” value [9] of the same molecule?
A: 2

Q: And the MIC on initial panels [10]?
A: 32 µg/mL

Q: And the MIC on initial panels, Fungi (C. albicans)?
A: 32 µg/mL

Q: What about the “MIC on initial panels” value [11] of the same molecule?
A: 64

Q: What about the “MIC on initial panels” value [12] of the same molecule?
A: 4-8

Q: And the “MIC on initial panels” value [13]?
A: 4

Q: And the “Toxicity HEK293” value (HEK293)?
A: 201.2 ± 25.1

Q: What about the “MIC on initial panels” value [14] of the same molecule?
A: 2

Q: What about the “MIC on initial panels” value [15] of the same molecule?
A: 32

Q: What about the “MIC on initial panels” value [16] of the same molecule?
A: 2

Q: What about the “Toxicity HeLa” value (HeLa) of the same molecule?
A: 124.0 ± 30.4

Q: What about the “MIC on initial panels” value (Klebsiella pneumoniae M6) of the same molecule?
A: 4

Reference: patent US20230047825A1, “ANTIMICROBIAL PEPTIDES” (priority 2019, published 2023)
